Results as given in US11135316B2, “Imaging and treatment of pathophysiologic conditions by Cerenkov radiation” (priority 2014, dated 2021).

What was measured:
HT1080 cells [1] = test: Lipid peroxidation assay (BODIPY 581/591 C11); type: cell-based
Experimental: BODIPY® 581i591 C11 reagent (Life Technologies Inc.) was used to quantitatively determine the degree of lipid peroxidation. It is a ratiometric fluorescence technique that relies on oxidation of lipids to shift fluorescence emission peak from 590 nm to 510 nm. […] All the compounds were incubated for 6 h at 37° C. Finally, the BODIPY-based dye (10 μM) was added and incubated for 30 min at 37° C. After washing the cells with PBS three times, the plate was analysed using a Synergy HT multimode plate reader (BioTek Instruments Inc., Winooski, USA) with excitation/emission of 581/591 nm for the reduced dye and at 488/510 nm for the oxidized dye. The ratio of the fluorescence intensities at 590/510 nm was plotted to derive the ratio of fluorescence change.

4T1 and HT1080 tumor = settings: mouse, in vivo
From the text: The studies were commenced when tumor volume reached 500 mm^3. […] The animals were euthanized subsequently and major organs dissected and imaged in the same channel. Image J was used to quantitate fluorescence intensity by drawing regions of interest encompassing entire organs.

HT1080 tumor = settings: mouse, in vivo
HT1080 cells [2] = test system: HT1080 cells
Experimental: FIG. 7A and FIG. 7B depict the effect of photosensitive particles and radionuclides on cell viability. […] The control group was considered to be 100% viable. […] HT1080 cells were used and the values are means±s.e.m. (experiments for each group were run in triplicates).
The MTS (3-(4,5-di methylthiazol-2-yl)-5-(3-carboxymethoxyphenyl)-2-(4-sulfophenyl)-2H-tetrazolium) assay, a colorimetric assay for assessing cell viability was performed using the CellTiter 96® AQueous Non-Radioactive Cell Proliferation Assay kit (Promega Co.) according to the manufacturer's instructions.

HT1080 tumors = type: in vivo, mice; settings: i.v. with FDG, monitored 15 days
From the text: Tumor volume was registered every alternate day for 15 days.

[3] = test system: mitochondrial membrane potential; test: Mitochondrial membrane potential assay (Mitotracker Green); type: cell-based; settings: coincubated with FDG
Experimental: For measuring mitochondrial membrane potential, Mitotracker Green (Life Technologies Inc.) was used according to manufacturer's instructions. Staurosporine (2 μM; Sigma Aldrich Co.) was used as positive control. Fluorescence readout was performed using a plate reader using excitation/emission wavelengths of 490/516 nm.

HT1080 cell line = settings: expected result of planned assay
cells = settings: literature; cited from earlier work

## Cc1c(C)c2c(c(C)c1O)CCC(C)(C(=O)O)O2 (centres unmarked) [Trolox, reference compound]
HT1080 cells [1]; added to Tc and FDG
  effect of peroxyl radical scavenger on lipid peroxidation: adequately inhibited this process

## Tf: transferrin, tumor targeting protein; Alexa 680 labeled for biodistribution
4T1 and HT1080 tumor
  tumor:muscle ratio: 5.5
HT1080 tumor
  tumor to muscle ratio: 5.3

## Titanocene dichloride [Tc]
HT1080 cells [2]
  concentration that did not induce apoptosis: < 10000 ng/mL
HT1080 tumors
  tumor volume, fold smaller compared to controls: four-fold
HT1080 cells [1]; with FDG
  peroxidation of cellular lipids: induced significant peroxidation and degradation of cellular lipids
[3]
  mitochondrial membrane potential: significant decrease in mitochondrial membrane potential
HT1080 cell line
  LD50 Tc concentration, fold lower with CR than without FDG: at least 4 fold
cells
  concentration known to induce apoptosis in cells: ≥ 12500 ng/mL

## titanium dioxide [TiO2]
HT1080 cells [2]
  concentration at which TiO2 particles did not induce apoptosis: < 0.004 ng/mL
  concentration that did not induce apoptosis: < 4000 ng/mL
